# Earlier results as cited in patent publication US20050064019A1, “Impregnated, flexible, rawhide pet chews containing antimicrobially active chlorhexdine” (priority 2003, published 2005).
# Key:
# [1] = rat, in vivo
# [2] = two years continuous use
# bacterial spores = settings: except at elevated temperatures
smiles,measurement,setting,value
[H]/N=C(\N/C(=N/[H])NCCCCCCNC(=N)NC(=N)Nc1ccc(Cl)cc1)Nc1ccc(Cl)cc1 [chlorhexidine],Activity against fungal spores,fungal spores,inactive
same,Solubility in water,,practically insoluble in water
same,Tolerance of chlorhexidine in drinking water,[1],without detectable interference with growth and reproduction
same,Side effects in long term trials,[2],no systemic or serious local side effects
same,Activity against bacterial spores,bacterial spores,inactive
